These results are taken from patent publication US20260176252A1, “IONIZABLE LIPIDS WITH BRANCHED HEAD GROUPS” (Beam Therapeutics Inc., priority 2023, published 2026).

The test system of data set [1] is PCSK9 target site. The data set is described as follows: In vivo base editing with LNP-delivered ABE mRNA and sgRNA targeting PCSK9. As to conditions: Balb/c mice, IV tail vein, 0.03 mg/kg total RNA, 4 days after dosing. On the procedure: Lipid nanoparticle components are dissolved in 100% ethanol at specified lipid component molar ratios. mRNA encoding an adenine base editor and a chemically-modified sgRNA is dissolved at a mass ratio of 1:1 in 10 mM citrate, 100 mM NaCl, pH 4.0, resulting in a concentration of NA cargo of approximately 0.22 mg/mL. LNP preparations are formulated with molar ratios of either 50% Ionizable Lipid:38.5% Cholesterol:1.5% PEG2000-DMG: 10% DSPC or 47.5% Ionizable Lipid:40% Cholesterol:2.5% PEG2000-DMG: 10% DSPC both at a total lipid to NA molar ratio of 6.
(§1) LNP preparations are formed by microfluidic mixing of the lipid and NA solutions using a Precision Nanosystems NanoAssemblr Ignite Instrument, according to the manufacturer's protocol. A 3:1 ratio of aqueous to organic solvent is maintained during mixing using differential flow rates. After mixing, LNP preparations are collected, diluted in PBS (approximately 2:1 v/v), and further buffer exchange is conducted using dialysis in PBS at 4° C. for 8 to 24 hours against a 20 kDa filter. After this initial dialysis, each individual LNP preparation is characterized via dynamic light scattering (DLS) to measure size and polydispersity. pKa of a subpopulation of LNP preparations is measured via TNS assay. After dialysis, LNP preparations are sterile filtered using 0.22 micron sterile filter and stored at 4° C. for further use. In some embodiments, LNP preparations may be concentrated using 100 kDa Amicon filters per manufacturer's protocol.
Male Balb/C mice aged approximately 8-12 weeks are used in the experiments described herein. Each mouse is temporarily restrained, and LNP preparations are administered IV via tail vein injection. Age-matched mice are also used to administer vehicle (1×PBS) via tail vein injection as a control. […]
For base editing, mRNA encoding an adenine base editor (ABE) and a guide RNA (sgRNA) targeting PCSK9 at 1:1 (mass ratio) are coencapsulated in LNP preparations as described herein. […] Base editing is determined by performing targeted deep sequencing analysis at the PCSK9 target site using extracted genomic DNA.

The nature of data set [2]: Encapsulation efficiency of LNP preparations (unlysed and lysed LNPs). In kind it is physicochemical. The following applies: Table D; LNP formulation ratio 47.5:40:2.5:10, ABE mRNA + PCSK9 sgRNA 1:1. The method, then: Concentration of NA is determined by Qubit microRNA kit (for siRNA) or HS RNA kit (for mRNA) per manufacturer's instructions. Encapsulation efficiency is determined by measuring unlysed and lysed LNPs.

The nature of data set [3]: pKa of LNP preparations via TNS assay. In kind it is physicochemical. As to conditions: Table D; LNP formulation ratio 47.5:40:2.5:10. The method, then:
as §1

The nature of data set [4]: Dynamic light scattering (DLS) of LNP preparations: size (diameter) and polydispersity. As to conditions: Table D; LNP formulation ratio 47.5:40:2.5:10, ABE mRNA + PCSK9 sgRNA 1:1. The format is physicochemical. The method, then: A ratio of aqueous to organic solvent of approximately 2:1 or 3:1 was maintained during mixing using differential flow rates. After mixing, LNP preparations were collected, diluted in phosphate buffer saline (PBS) or Tris-buffered saline (TBS) (approximately 1:1 v/v). Further buffer exchange was conducted using dialysis in PBS or TBS at 4° C. for 4 to 24 hours against a 20 kDa filter. After this initial dialysis, each individual LNP preparation may be characterized via dynamic light scattering (DLS) to measure the size (e.g., diameter) and polydispersity. LNP preparations falling within specific diameter and polydispersity ranges were pooled, and further dialyzed against PBS or TBS at 4° C. for 1 to 4 hours against a 100 kDa dialysis cassette. After the second dialysis, LNP preparations were sterile filtered using 0.22 μm filter and stored at 4° C. for further use.
as §1
DLS-LNP preparation hydrodynamic diameter and polydispersity index (PDI) is measured using high throughput dynamic light scattering (DLS) (DynaPro plate reader II, Wyatt). LNP preparations are diluted 1×PBS to an appropriate concentration and analyzed.

With `C=CC(C)(CCC=C(C)CCC=C(C)C)OC(=O)CCCCCC(=O)OCC(COC(=O)CCCCCC(=O)OC(C)(C=C)CCC=C(C)CCC=C(C)C)COC(=O)CCC(CCCCCC)OC(=O)NCCN1CCCC1` (stereo not drawn) [Example 13, 1-{2-[({7-oxo-7-[(3,7,11-trimethyldodeca-1,6,10-trien-3-yl)oxy]heptanoyl}oxy)methyl]-3-{[4-({[2-(pyrrolidin-1-yl)ethyl]carbamoyl}oxy)decanoyl]oxy}propyl}7-(3,7,11-trimethyldodeca-1,6,10-trien-3-yl) heptanedioate], in data set [1], the “Liver Editing A->G (%)” value was determined as 1.2%. The “EE (%)” value in data set [2] was determined as 96.1%. Besides, in data set [3], the pKa is 6.72. In addition, the “Diameter (nm)” value in data set [4] amounted to 73.3 nm.

In the case of `CCCCCCC(CCC(=O)OCC(COC(=O)CCCCCC(=O)OCC=C(C)CCC=C(C)CCC=C(C)C)COC(=O)CCCCCC(=O)OCC=C(C)CCC=C(C)CCC=C(C)C)OC(=O)NCCN1CCCC1` (stereo not drawn) [Example 14, 1-{2-[({7-oxo-7-[(3,7,11-trimethyldodeca-2,6,10-trien-1-yl)oxy]heptanoyl}oxy)methyl]-3-{[4-({[2-(pyrrolidin-1-yl)ethyl]carbamoyl}oxy)decanoyl]oxy}propyl}7-(3,7,11-trimethyldodeca-2,6,10-trien-1-yl) heptanedioate], in data set [1], the “Liver Editing A->G (%)” value is 23.6%. In data set [2], the “EE (%)” value stood at 97.7%. The pKa in data set [3] came to 6.78. Besides, the “Diameter (nm)” value in data set [4] is given as 77.15 nm.

`CCCCCCC(CCC(=O)OCC(COC(=O)CCCCCC(=O)OCC=C(C)CCCC(C)CCCC(C)CCCC(C)C)COC(=O)CCCCCC(=O)OCC=C(C)CCCC(C)CCCC(C)CCCC(C)C)OC(=O)NCCN1CCCC1` (stereo not drawn) [Example 15, 1-{2-[({7-oxo-7-[(3,7,11,15-tetramethylhexadec-2-en-1-yl)oxy]heptanoyl}oxy)methyl]-3-{[4-({[2-(pyrrolidin-1-yl)ethyl]carbamoyl}oxy)decanoyl]oxy}propyl}7-(3,7,11,15-tetramethylhexadec-2-en-1-yl) heptanedioate]: the “Liver Editing A->G (%)” value in data set [1] is given as 15.7%. Also, in data set [2], the “EE (%)” value is reported as 98.5%. The pKa in data set [3] is given as 6.32. For the same molecule, the “Diameter (nm)” value in data set [4] came out at 74.1 nm.
